Consider 25 compounds from ChEMBL document CHEMBL1127611 (J Med Chem, 1994).

For the experiment, the target named is T1, Vesicular acetylcholine transporter (Torpedo californica, UniProt P81721).
T1 sequence (P81721 whole entry): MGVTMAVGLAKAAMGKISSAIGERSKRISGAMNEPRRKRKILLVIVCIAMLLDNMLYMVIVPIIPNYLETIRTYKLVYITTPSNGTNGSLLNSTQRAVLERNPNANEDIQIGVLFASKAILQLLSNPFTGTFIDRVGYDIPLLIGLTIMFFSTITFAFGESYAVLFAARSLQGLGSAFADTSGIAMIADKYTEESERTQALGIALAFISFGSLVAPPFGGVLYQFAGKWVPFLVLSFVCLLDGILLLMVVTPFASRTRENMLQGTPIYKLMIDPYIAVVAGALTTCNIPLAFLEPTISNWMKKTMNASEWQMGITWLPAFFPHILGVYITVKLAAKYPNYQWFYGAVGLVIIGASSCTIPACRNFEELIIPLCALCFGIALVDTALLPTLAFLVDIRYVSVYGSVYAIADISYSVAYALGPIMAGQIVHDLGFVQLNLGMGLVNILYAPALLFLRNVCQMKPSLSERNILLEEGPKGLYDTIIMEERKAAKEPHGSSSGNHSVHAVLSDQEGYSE
Briefly: In vitro binding affinity to vesamicol receptor using [3H]vesamicol. Also on record: species or system Tetronarce californica.
`O[C@@H]1CCN(Cc2cccc(I)c2)C[C@H]1N1CCC2(C=Cc3ccccc32)CC1` displayed a Ki of 0.264 nM.

`O[C@@H]1CCCC[C@H]1N1CCC2(C=Cc3ccccc32)CC1` had a Ki of 6.93 nM.

The compound `O[C@@H]1CCN(Cc2ccccc2I)C[C@H]1N1CCC2(CCc3ccccc32)CC1` gave an inhibition constant (Ki) of 0.98 nM.

`O[C@@H]1Cc2ccccc2C[C@H]1N1CCC2(CCCc3ccccc32)CC1` registered a Ki of 18.4 nM.

The compound `O[C@@H]1CCN(Cc2ccc(I)cc2)C[C@H]1N1CCC(c2ccccc2)CC1` returned a Ki of 0.05 nM.

Take `O[C@@H]1CCN(Cc2ccc(I)cc2)C[C@H]1N1CCC2(C=Cc3ccccc32)CC1`: the affinity, expressed as Ki, was 0.762 nM.

`O[C@@H]1CCCC[C@H]1N1CCC2(CCCc3ccccc32)CC1` had a Ki of 24.2 nM.

`O[C@@H]1CCN(Cc2ccccc2I)C[C@H]1N1CCC2(CCCc3ccccc32)CC1` came in with a Ki of 5.8 nM.

In turn, `O[C@@H]1Cc2ccccc2C[C@H]1N1CCC2(C=Cc3c(Br)cccc32)CC1` returned a Ki of 0.212 nM.

`O[C@@H]1Cc2ccccc2C[C@H]1N1CCC2(C=Cc3ccc(Br)cc32)CC1` registered a Ki of 1.4 nM.

With `O[C@@H]1CCN(Cc2cccc(I)c2)C[C@H]1N1CCC(c2ccccc2)CC1`, the affinity, expressed as Ki, was 0.063 nM.

`O[C@@H]1Cc2ccccc2C[C@H]1N1CCC2(C=Cc3ccccc32)CC1` displayed a Ki of 0.121 nM.

`O[C@@H]1CCN(Cc2cccc(I)c2)C[C@H]1N1CCC2(CCCc3ccccc32)CC1` showed a Ki of 0.856 nM. Compared with the last compound, the Ki is about 7.1-fold higher.

In turn, `O[C@@H]1CCN(Cc2ccc(F)cc2)C[C@H]1N1CCC2(CCCc3ccccc32)CC1` showed a Ki of 2.64 nM.

Compound `O[C@@H]1Cc2ccccc2C[C@H]1N1CCC2(C=Cc3cc(Br)ccc32)CC1` displayed a Ki of 0.271 nM.

In the case of `O[C@@H]1CCN(Cc2ccc(F)cc2)C[C@H]1N1CCC2(C=Cc3ccccc32)CC1`, affinity was put at a Ki of 0.248 nM. The Ki values of the last two compounds are within 1.5-fold of each other.

For `O[C@@H]1Cc2ccccc2C[C@H]1N1CCC2(CC1)C(Br)=Cc1ccccc12`, the affinity, expressed as Ki, was 0.41 nM. Against the preceding compound, the Ki is about 1.7-fold higher.

`O[C@@H]1CCN(Cc2ccc(I)cc2)C[C@H]1N1CCC2(CCCc3ccccc32)CC1` came in with a Ki of 0.638 nM.

Compound `O[C@@H]1CCN(Cc2ccccc2I)C[C@H]1N1CCC(c2ccccc2)CC1` came in with a Ki of 0.147 nM.

Turning to `Nc1cccc2c1C[C@@H](N1CCC(c3ccccc3)CC1)[C@H](O)C2`, affinity was put at a Ki of 0.0065 nM.

`O[C@@H]1CCN(Cc2ccc(I)cc2)C[C@H]1N1CCC2(CCc3ccccc32)CC1` came in with an inhibition constant Ki of 0.8 nM.

As to `O[C@@H]1CCN(Cc2ccccc2I)C[C@H]1N1CCC2(C=Cc3ccccc32)CC1`, the affinity, expressed as Ki, was 0.798 nM.

In turn, `O[C@@H]1CCN(Cc2ccc(F)cc2)C[C@H]1N1CCC2(CCc3ccccc32)CC1` had a Ki of 0.36 nM.

The compound `O[C@@H]1CCCC[C@H]1N1CCC2(CCc3ccccc32)CC1` gave a Ki of 7.59 nM.

`O[C@@H]1Cc2ccccc2C[C@H]1N1CCC2(CCc3ccccc32)CC1` registered an inhibition constant (Ki) of 0.36 nM.
